Laboratory results taken from article PMC9516332 (Frontiers in Oncology, 2022).
pIC50: −log10 of the molar value. Where two headings read alike, the source gives them in different places.

System: 134 cancer cell lines
Test: Cell viability assay (ATPlite, 72 hours), IC50 on cancer cell line panel

## CC(=O)Nc1cccc(-n2c(=O)n(C3CC3)c(=O)c3c(Nc4ccc(I)cc4F)n(C)c(=O)c(C)c32)c1 [trametinib]
HEC-6, read-out: IC50 in cell proliferation assay, HEC-6 cell line (EGFR p.A289V)
  pIC50: < 4.50
Homo sapiens, 769-P, read-out: IC50 in cell proliferation assay, cell line 769-P
  pIC50: 7.02
Homo sapiens, 786-0, read-out: IC50 in cell proliferation assay, cell line 786-O
  pIC50: 7.38
Homo sapiens, A 172, read-out: IC50 in cell proliferation assay, cell line A-172
  pIC50: 6.63
Homo sapiens, A204, read-out: IC50 in cell proliferation assay, cell line A-204
  pIC50: 5.91
Homo sapiens, A498, read-out: IC50 in cell proliferation assay, cell line A-498
  pIC50: 4.86
Homo sapiens, A549, read-out: IC50 in cell proliferation assay, cell line A-549
  pIC50: 8.10
Homo sapiens, A704, read-out: IC50 in cell proliferation assay, cell line A-704
  pIC50: < 4.55
Homo sapiens, A-375, read-out: IC50 in cell proliferation assay, cell line A-375 (BRAF p.V600E)
  pIC50: 8.30
Homo sapiens, A-427, read-out: IC50 in cell proliferation assay, cell line A-427
  pIC50: 8.67
Homo sapiens, ACHN, read-out: IC50 in cell proliferation assay, cell line ACHN
  pIC50: 8.22
Homo sapiens, AN3-CA, read-out: IC50 in cell proliferation assay, cell line AN3-CA (FGFR2 p.N549K)
  pIC50: 7.30
Homo sapiens, ASPC1, read-out: IC50 in cell proliferation assay, cell line AsPC-1
  pIC50: 7.85
Homo sapiens, AU565, read-out: IC50 in cell proliferation assay, cell line AU565 (ERBB2 amplification)
  pIC50: < 4.55
Homo sapiens, BT-20, read-out: IC50 in cell proliferation assay, cell line BT-20
  pIC50: < 4.55
Homo sapiens, BT-474, read-out: IC50 in cell proliferation assay, cell line BT-474 (ERBB2 amplification)
  pIC50: < 4.50
Homo sapiens, BT-549, read-out: IC50 in cell proliferation assay, cell line BT-549
  pIC50: 6.50
Homo sapiens, BXPC-3, read-out: IC50 in cell proliferation assay, cell line BxPC-3
  pIC50: 7.42
Homo sapiens, C-33-A, read-out: IC50 in cell proliferation assay, cell line C-33 A
  pIC50: 8.35
Homo sapiens, CAL-27, read-out: IC50 in cell proliferation assay, cell line CAL-27
  pIC50: 7.96
Homo sapiens, CCF-STTG1, read-out: IC50 in cell proliferation assay, cell line CCF-STTG1
  pIC50: < 4.55
Homo sapiens, CCRF-CEM, read-out: IC50 in cell proliferation assay, cell line CCRF-CEM
  pIC50: < 4.55
Homo sapiens, COLO 205, read-out: IC50 in cell proliferation assay, cell line COLO 205 (BRAF p.V600E)
  pIC50: 8.40
Homo sapiens, COLO-829, read-out: IC50 in cell proliferation assay, cell line COLO 829 (BRAF p.V600E)
  pIC50: 7.80
Homo sapiens, DLD-1, read-out: IC50 in cell proliferation assay, cell line DLD-1
  pIC50: 6.29
Homo sapiens, DU-4475, read-out: IC50 in cell proliferation assay, cell line DU4475 (BRAF p.V600E)
  pIC50: 8.00
Homo sapiens, Daoy, read-out: IC50 in cell proliferation assay, cell line Daoy
  pIC50: 6.37
Homo sapiens, DoTc2-4510, read-out: IC50 in cell proliferation assay, cell line DoTc2 4510
  pIC50: 8.10
Homo sapiens, EOL1, read-out: IC50 in cell proliferation assay, cell line EoL-1 (FIP1L1-PDGFRA)
  pIC50: 8.10
Homo sapiens, FaDu, read-out: IC50 in cell proliferation assay, cell line FaDu
  pIC50: 7.72
Homo sapiens, G-361, read-out: IC50 in cell proliferation assay, cell line G-361 (BRAF p.V600E)
  pIC50: 8.26
Homo sapiens, HCC827, read-out: IC50 in cell proliferation assay, cell line HCC827 (EGFR exon19del)
  pIC50: 6.82
Homo sapiens, HCC4006, read-out: IC50 in cell proliferation assay, cell line HCC4006 (EGFR exon19del)
  pIC50: 6.09
Homo sapiens, HCT-15, read-out: IC50 in cell proliferation assay, cell line HCT 15
  pIC50: 5.76
Homo sapiens, HCT-116, read-out: IC50 in cell proliferation assay, cell line HCT 116
  pIC50: 7.54
Homo sapiens, HEC-1, read-out: IC50 in cell proliferation assay, HEC-1 cell line
  pIC50: 6.48
Homo sapiens, HEC-1B, read-out: IC50 in cell proliferation assay, HEC-1-B cell line (EGFR p.A864V)
  pIC50: 8.20
Homo sapiens, HL-60, read-out: IC50 in cell proliferation assay, HL-60 cell line
  pIC50: 9.00
Homo sapiens, HT, read-out: IC50 in cell proliferation assay, HT cell line
  pIC50: < 4.55
Homo sapiens, HT-1080, read-out: IC50 in cell proliferation assay, HT-1080 cell line
  pIC50: 7.55
Homo sapiens, Hs746T, read-out: IC50 in cell proliferation assay, Hs 746.T cell line (MET exon14skip + amplification)
  pIC50: 7.09
Homo sapiens, Hs-578T, read-out: IC50 in cell proliferation assay, Hs 578T cell line
  pIC50: 6.68
Homo sapiens, HuTu80, read-out: IC50 in cell proliferation assay, HuTu 80 cell line
  pIC50: 6.89
Homo sapiens, J82, read-out: IC50 in cell proliferation assay, J82 cell line
  pIC50: < 4.55
Homo sapiens, Jurkat E6.1, read-out: IC50 in cell proliferation assay, Jurkat E6.1 cell line
  pIC50: < 4.55
Homo sapiens, K562, read-out: IC50 in cell proliferation assay, K-562 cell line
  pIC50: 7.66
Homo sapiens, KATO III, read-out: IC50 in cell proliferation assay, KATO III cell line (FGFR2 amplification)
  pIC50: 6.85
Homo sapiens, KG-1, read-out: IC50 in cell proliferation assay, KG-1 cell line (FGFR1OP2-FGFR1)
  pIC50: 8.05
Homo sapiens, KLE, read-out: IC50 in cell proliferation assay, KLE cell line
  pIC50: < 4.55
Homo sapiens, KMS-11, read-out: IC50 in cell proliferation assay, KMS-11 cell line (FGFR3 p.Y373C)
  pIC50: < 4.50
Homo sapiens, KU812, read-out: IC50 in cell proliferation assay, Ku812 cell line
  pIC50: 7.89
Homo sapiens, Kasumi 1, read-out: IC50 in cell proliferation assay, Kasumi-1 cell line (KIT p.N822K)
  pIC50: 7.54
Homo sapiens, LC-2-ad, read-out: IC50 in cell proliferation assay, LC-2/ad cell line (CCDC6-RET)
  pIC50: 6.78
Homo sapiens, LNCaP-Clone-FGC, read-out: IC50 in cell proliferation assay, LNCaP clone FGC cell line
  pIC50: < 4.55
Homo sapiens, LS174T, read-out: IC50 in cell proliferation assay, LS174T cell line
  pIC50: 7.52
Homo sapiens, LS-411N, read-out: IC50 in cell proliferation assay, LS411N cell line (BRAF p.V600E)
  pIC50: 8.05
Homo sapiens, LoVo, read-out: IC50 in cell proliferation assay, LoVo cell line
  pIC50: 7.49
Homo sapiens, MCF7, read-out: IC50 in cell proliferation assay, MCF-7 cell line
  pIC50: < 4.55
Homo sapiens, MDA-MB-231, read-out: IC50 in cell proliferation assay, MDA-MB-231 cell line
  pIC50: 7.36
Homo sapiens, MDA-MB-453, read-out: IC50 in cell proliferation assay, MDA-MB-453 cell line
  pIC50: 6.57
Homo sapiens, MDA-MB-468, read-out: IC50 in cell proliferation assay, MDA-MB-468 cell line
  pIC50: 6.82
Homo sapiens, MG-63, read-out: IC50 in cell proliferation assay, MG-63 cell line
  pIC50: 6.59
Homo sapiens, MIA PaCa-2, read-out: IC50 in cell proliferation assay, MIA PaCa-2 cell line
  pIC50: 7.48
Homo sapiens, MKN-45, read-out: IC50 in cell proliferation assay, MKN45 cell line (MET amplification)
  pIC50: 7.08
Homo sapiens, MOLM-13, read-out: IC50 in cell proliferation assay, MOLM-13 cell line (FLT3 ITD)
  pIC50: 7.47
Homo sapiens, MOLT-4, read-out: IC50 in cell proliferation assay, MOLT-4 cell line
  pIC50: 4.56
